Source: patent US12447153B2, “HER2 mutation inhibitors” (Array BioPharma Inc., priority 2021, dated 2025)

Experiments:
ErbB2 WT = ErbB2 WT (Homo sapiens (Human), UniProt P04626); test: ErbB Enzyme Assay (HTRF KinEASE-TK), Assay 2; format: biochemical
EGFR = EGFR (Homo sapiens (Human), UniProt P00533); test: ErbB Enzyme Assay (HTRF KinEASE-TK), Assay 3; format: biochemical
[1] = target: ErbB2 with Exon 20 YVMA insertion (HER2-YVMA) (Homo sapiens (Human), UniProt P04626, INS775YVMA); test: Cellular Phosphorylation Assay, Assay 4 (constitutive ErbB2 phosphorylation, NIH 3T3 cells); format: cell-based
EGFR wild type (EGFR WT) = EGFR wild type (EGFR WT) (Homo sapiens (Human), UniProt P00533); test: Cellular Phosphorylation Assay, Assay 5 (EGF-stimulated EGFR phosphorylation, NIH 3T3 cells); format: cell-based
[2] = EGF-stimulated EGFR WT phosphorylation
[3] = cellular ErbB2 YVMA phosphorylation
[4] = cellular EGFR WT phosphorylation, EGF-stimulated

EGFR, sequence (P00533 25-1210): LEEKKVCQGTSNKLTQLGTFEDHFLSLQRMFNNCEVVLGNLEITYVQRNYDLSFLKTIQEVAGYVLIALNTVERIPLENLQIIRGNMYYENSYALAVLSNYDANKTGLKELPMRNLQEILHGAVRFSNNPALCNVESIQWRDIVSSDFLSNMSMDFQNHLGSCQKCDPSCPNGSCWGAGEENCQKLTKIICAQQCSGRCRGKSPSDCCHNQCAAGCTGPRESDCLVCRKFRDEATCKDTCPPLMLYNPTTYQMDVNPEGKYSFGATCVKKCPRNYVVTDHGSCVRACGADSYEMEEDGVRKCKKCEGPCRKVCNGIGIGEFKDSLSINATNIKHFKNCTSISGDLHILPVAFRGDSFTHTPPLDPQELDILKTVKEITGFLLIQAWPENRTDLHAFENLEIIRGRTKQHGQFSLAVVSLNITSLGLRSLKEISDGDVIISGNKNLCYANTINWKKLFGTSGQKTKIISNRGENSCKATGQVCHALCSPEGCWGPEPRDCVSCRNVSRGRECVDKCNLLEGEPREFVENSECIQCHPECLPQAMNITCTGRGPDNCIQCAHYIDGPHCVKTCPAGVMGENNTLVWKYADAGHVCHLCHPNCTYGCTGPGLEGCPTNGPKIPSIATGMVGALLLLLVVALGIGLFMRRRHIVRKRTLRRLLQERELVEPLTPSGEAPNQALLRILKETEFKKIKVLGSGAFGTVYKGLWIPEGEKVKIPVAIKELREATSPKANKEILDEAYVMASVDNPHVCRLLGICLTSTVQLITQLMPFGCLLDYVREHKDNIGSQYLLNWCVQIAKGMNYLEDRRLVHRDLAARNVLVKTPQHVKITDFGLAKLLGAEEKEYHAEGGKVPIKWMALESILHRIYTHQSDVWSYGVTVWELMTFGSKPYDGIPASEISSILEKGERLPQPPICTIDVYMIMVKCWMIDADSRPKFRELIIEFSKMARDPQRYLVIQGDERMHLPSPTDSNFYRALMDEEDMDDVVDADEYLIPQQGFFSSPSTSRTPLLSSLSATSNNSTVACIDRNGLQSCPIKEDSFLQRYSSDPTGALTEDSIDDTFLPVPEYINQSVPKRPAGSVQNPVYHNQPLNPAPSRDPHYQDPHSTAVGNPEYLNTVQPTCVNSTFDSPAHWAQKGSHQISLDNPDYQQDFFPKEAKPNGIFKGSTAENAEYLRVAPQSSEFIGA
EGFR wild type (EGFR WT), sequence (P00533 25-1210): as above
ErbB2 WT, sequence (P04626 23-1255): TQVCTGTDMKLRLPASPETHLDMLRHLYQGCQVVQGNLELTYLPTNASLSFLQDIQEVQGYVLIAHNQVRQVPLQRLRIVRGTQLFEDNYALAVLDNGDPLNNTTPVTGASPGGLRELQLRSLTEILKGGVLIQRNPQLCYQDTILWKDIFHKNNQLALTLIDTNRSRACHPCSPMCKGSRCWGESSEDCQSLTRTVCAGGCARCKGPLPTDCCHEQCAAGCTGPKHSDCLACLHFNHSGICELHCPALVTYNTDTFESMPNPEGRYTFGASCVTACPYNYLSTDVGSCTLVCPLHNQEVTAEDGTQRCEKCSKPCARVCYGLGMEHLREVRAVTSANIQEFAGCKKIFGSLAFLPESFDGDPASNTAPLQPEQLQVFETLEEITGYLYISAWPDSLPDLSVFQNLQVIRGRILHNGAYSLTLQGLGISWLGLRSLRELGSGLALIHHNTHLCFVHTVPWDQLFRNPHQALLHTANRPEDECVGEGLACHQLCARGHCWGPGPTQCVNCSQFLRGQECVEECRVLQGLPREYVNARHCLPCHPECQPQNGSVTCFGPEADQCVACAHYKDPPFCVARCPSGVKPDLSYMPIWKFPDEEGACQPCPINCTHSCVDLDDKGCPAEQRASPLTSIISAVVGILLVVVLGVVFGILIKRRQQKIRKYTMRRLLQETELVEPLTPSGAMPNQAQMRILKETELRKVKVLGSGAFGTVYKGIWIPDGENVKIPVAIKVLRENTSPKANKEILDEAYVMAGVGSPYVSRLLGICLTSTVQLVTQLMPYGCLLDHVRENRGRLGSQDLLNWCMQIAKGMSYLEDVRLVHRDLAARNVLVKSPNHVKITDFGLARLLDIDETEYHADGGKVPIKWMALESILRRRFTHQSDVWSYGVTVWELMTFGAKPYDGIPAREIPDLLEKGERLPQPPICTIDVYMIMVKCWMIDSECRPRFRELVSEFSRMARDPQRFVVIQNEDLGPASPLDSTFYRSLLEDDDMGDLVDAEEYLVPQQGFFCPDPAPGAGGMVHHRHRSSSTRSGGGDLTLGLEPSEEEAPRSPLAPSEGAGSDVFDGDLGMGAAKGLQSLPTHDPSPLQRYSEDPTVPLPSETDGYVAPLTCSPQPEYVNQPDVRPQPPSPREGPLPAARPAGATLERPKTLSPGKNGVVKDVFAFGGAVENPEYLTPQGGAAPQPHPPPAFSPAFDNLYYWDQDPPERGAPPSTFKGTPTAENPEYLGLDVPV
ErbB2 with Exon 20 YVMA insertion (HER2-YVMA), sequence (P04626 other isoform, or with tags, fused parts or gaps ins YVMA behind 775): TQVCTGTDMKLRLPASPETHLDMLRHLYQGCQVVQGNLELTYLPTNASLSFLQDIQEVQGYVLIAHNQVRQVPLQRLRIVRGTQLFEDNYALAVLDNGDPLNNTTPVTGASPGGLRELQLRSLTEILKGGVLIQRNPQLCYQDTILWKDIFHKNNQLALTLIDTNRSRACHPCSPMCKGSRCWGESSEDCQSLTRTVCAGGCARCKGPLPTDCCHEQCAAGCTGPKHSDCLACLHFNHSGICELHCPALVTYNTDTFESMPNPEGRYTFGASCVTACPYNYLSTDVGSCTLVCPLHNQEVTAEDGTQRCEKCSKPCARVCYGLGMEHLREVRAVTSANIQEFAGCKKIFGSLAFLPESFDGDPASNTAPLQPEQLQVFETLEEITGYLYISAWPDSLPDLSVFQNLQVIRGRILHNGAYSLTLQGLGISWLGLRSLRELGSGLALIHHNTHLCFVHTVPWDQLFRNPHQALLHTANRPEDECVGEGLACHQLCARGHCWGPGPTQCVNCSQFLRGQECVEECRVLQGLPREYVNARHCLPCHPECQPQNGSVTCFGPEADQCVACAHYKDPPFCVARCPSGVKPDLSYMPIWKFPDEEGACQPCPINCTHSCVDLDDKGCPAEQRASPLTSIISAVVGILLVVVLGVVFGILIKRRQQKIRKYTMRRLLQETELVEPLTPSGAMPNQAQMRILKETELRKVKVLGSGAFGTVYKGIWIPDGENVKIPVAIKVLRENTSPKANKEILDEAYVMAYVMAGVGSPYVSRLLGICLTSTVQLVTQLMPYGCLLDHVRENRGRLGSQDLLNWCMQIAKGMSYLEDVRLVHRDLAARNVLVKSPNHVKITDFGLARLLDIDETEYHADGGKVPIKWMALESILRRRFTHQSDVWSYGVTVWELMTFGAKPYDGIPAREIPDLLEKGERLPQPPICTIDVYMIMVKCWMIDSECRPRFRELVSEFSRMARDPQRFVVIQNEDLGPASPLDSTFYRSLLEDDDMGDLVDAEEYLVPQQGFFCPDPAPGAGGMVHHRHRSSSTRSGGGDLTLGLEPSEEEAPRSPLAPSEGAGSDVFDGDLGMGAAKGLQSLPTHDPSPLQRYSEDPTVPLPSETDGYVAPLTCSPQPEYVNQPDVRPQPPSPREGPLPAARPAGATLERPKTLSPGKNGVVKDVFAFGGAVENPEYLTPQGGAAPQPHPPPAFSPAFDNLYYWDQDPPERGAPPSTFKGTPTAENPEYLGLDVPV

Row | Structure (SMILES) | IC50 (ErbB2 WT; ErbB2 WT enzyme) | IC50 (EGFR; EGFR enzyme) | IC50 ([1]; ErbB2 YVMA phosphorylation) | IC50 (EGFR wild type (EGFR WT); [2]) | IC50 (ErbB2 WT; ErbB2 WT enzyme assay) | IC50 (EGFR; EGFR enzyme assay) | IC50 [1, 3] | IC50 (EGFR wild type (EGFR WT); [4])
1 | C=CC(=O)N1CCCC[C@@H](c2ccc3ncnc(Nc4ccc(Oc5ccc6c(c5)ncn6C)c(C)c4)c3n2)C1 (single isomer, unassigned) [Example 171] | 13.4 nM | ≥ 10000 nM | 26.3 nM | ≥ 5000 nM | – | – | – | –
2 | C=CC(=O)N1CC[C@@H]2[C@H](c3ccc4ncnc(Nc5ccc(Oc6ccc7c(c6)ncn7C)c(C)c5F)c4n3)CC[C@@H]21 (racemic) [Example 142, rac-1-((3aR,4R,6aS)-4-(4-((2-fluoro-3-methyl-4-((1-methyl-1H-benzo[d]imidazol-5-yl)oxy)phenyl)amino)pyrido[3,2-d]pyrimidin-6-yl)hexahydrocyclopenta[b]pyrrol-1(2H)-yl)prop-2-en-1-one] | 49.9 nM | ≥ 10000 nM | 79.5 nM | ≥ 5000 nM | – | – | – | –
3 | C=CC(=O)N1CCC(Oc2nc3c(Nc4ccc(Oc5ccc6cn(C)nc6c5)c(C)c4F)ncnc3cc2OC)CC1 [Example 151, 1-(4-((4-((2-fluoro-3-methyl-4-((2-methyl-2H-indazol-6-yl)oxy)phenyl)amino)-7-methoxypyrido[3,2-d]pyrimidin-6-yl)oxy)piperidin-1-yl)prop-2-en-1-one] | 41.6 nM | 126 nM | 28.1 nM | 548 nM | – | – | – | –
4 | C=CC(=O)N1[C@@H]2CC[C@H]1C[C@@H](c1ccc3ncnc(Nc4cc(C)c(Oc5ccn6ncnc6c5)cc4F)c3n1)C2 [Example 206, 1-((1R,3r,5S)-3-(4-((4-([1,2,4]triazolo[1,5-a]pyridin-7-yloxy)-2-fluoro-5-methylphenyl)amino)pyrido[3,2-d]pyrimidin-6-yl)-8-azabicyclo[3.2.1]octan-8-yl)prop-2-en-1-one] | 151 nM | 4770 nM | 115 nM | ≥ 5000 nM | – | – | – | –
5 | C=CC(=O)N1C2CCC1CC(c1ccc3ncnc(Nc4ccc(Oc5ccc6c(c5)ncn6C)c(C)c4)c3n1)C2 (centres unmarked) [Example 122, 1-(3-(4-((3-methyl-4-((1-methyl-1H-benzo[d]imidazol-5-yl)oxy)phenyl)amino)pyrido[3,2-d]pyrimidin-6-yl)-8-azabicyclo[3.2.1]octan-8-yl)prop-2-en-1-one] | 9.3 nM | 3880 nM | 13 nM | ≥ 5000 nM | – | – | – | –
6 | C=CC(=O)N1CCN(c2nc3c(Nc4ccc(Oc5ccn6ncnc6c5)c(Cl)c4F)ncnc3cc2OC)CC1 [Example 148, 1-(4-(4-((4-([1,2,4]triazolo[1,5-a]pyridin-7-yloxy)-3-chloro-2-fluorophenyl)amino)-7-methoxypyrido[3,2-d]pyrimidin-6-yl)piperazin-1-yl)prop-2-en-1-one] | 0.6 nM | 16.1 nM | 4.4 nM | 69 nM | – | – | – | –
7 | C=CC(=O)N1[C@@H](C)CC(c2ccc3ncnc(Nc4ccc(Oc5ccc6c(c5)ncn6C)c(C)c4F)c3n2)C[C@@H]1C (mixture of isomers) [Example 313] | – | – | – | – | 79.7 nM | ≥ 10000 nM | 51.9 nM | ≥ 5000 nM
8 | C=CC(=O)N1CCC(Oc2ccc3ncnc(Nc4ccc(Oc5cnn6c(C)cnc6c5)c(C)c4F)c3n2)CC1 [Example 55, 1-(4-((4-((2-fluoro-3-methyl-4-((3-methylimidazo[1,2-b]pyridazin-7-yl)oxy)phenyl)amino)pyrido[3,2-d]pyrimidin-6-yl)oxy)piperidin-1-yl)prop-2-en-1-one] | 2040 nM | ≥ 10000 nM | 50.8 nM | 930 nM | – | – | – | –
9 | C=CC(=O)N1C[C@H]2CC[C@@H]1[C@@H](c1ccc3ncnc(Nc4ccc(Oc5cnc6c(c5)ncn6C)c(C)c4F)c3n1)C2 [Example 427] | – | – | – | – | 104 nM | 2990 nM | 56.4 nM | ≥ 5000 nM
10 | C=CC(=O)N1CCN(c2nc3c(Nc4ccc(Oc5ccn6ncnc6c5)c(C)c4F)ncnc3cc2Cl)CC1(C)C [Example 160, 1-(4-(4-((4-([1,2,4]triazolo[1,5-a]pyridin-7-yloxy)-2-fluoro-3-methylphenyl)amino)-7-chloropyrido[3,2-d]pyrimidin-6-yl)-2,2-dimethylpiperazin-1-yl)prop-2-en-1-one] | 515 nM | ≥ 10000 nM | 165 nM | ≥ 5000 nM | – | – | – | –
11 | C=CC(=O)N1CCCC[C@H](c2ccc3ncnc(Nc4ccc(Oc5ccc6c(c5)ncn6C)c(C)c4)c3n2)C1 (single isomer, unassigned) [Example 172] | 5.2 nM | 720 nM | 13.9 nM | 1960 nM | – | – | – | –
12 | C=CC(=O)N1[C@H]2CC[C@@H]1[C@H](c1ccc3ncnc(Nc4ccc(Oc5ccn6ncnc6c5)c(C)c4F)c3n1)CC2 [Example 429] | – | – | – | – | 28.4 nM | 520 nM | 13.8 nM | 447 nM
13 | C=C(C)c1ccc2ncnc(Nc3ccc(Oc4ccc5c(c4)ncn5C)c(C)c3)c2n1 [Example 24, N-(3-methyl-4-((1-methyl-1H-benzo[d]imidazol-5-yl)oxy)phenyl)-6-(prop-1-en-2-yl)pyrido[3,2-d]pyrimidin-4-amine] | 194 nM | ≥ 10000 nM | 70.6 nM | ≥ 5000 nM | – | – | – | –

Other lines, results leading:

Row | IC50 (ErbB2 WT; ErbB2 WT enzyme) | IC50 (EGFR; EGFR enzyme) | IC50 ([1]; ErbB2 YVMA phosphorylation) | IC50 (EGFR wild type (EGFR WT); [2]) | IC50 (ErbB2 WT; ErbB2 WT enzyme assay) | IC50 (EGFR; EGFR enzyme assay) | IC50 [1, 3] | IC50 (EGFR wild type (EGFR WT); [4]) | Structure (SMILES)
14 | – | – | – | – | 405 nM | ≥ 10000 nM | 44.8 nM | ≥ 5000 nM | C=CC(=O)N1C[C@H]2CC[C@@H]1[C@H](c1ccc3ncnc(Nc4cc(C)c(Oc5cnc6c(c5)ncn6C)cc4F)c3n1)C2 [Example 424]
15 | 28.5 nM | 2690 nM | 78 nM | ≥ 5000 nM | – | – | – | – | C=CC(=O)N1C[C@H]2CC[C@@H](C1)[C@@H]2c1ccc2ncnc(Nc3ccc(Oc4ccn5ncnc5c4)c(C)c3)c2n1 [Example 221, 1-((1R,5S,8r)-8-(4-((4-([1,2,4]triazolo[1,5-a]pyridin-7-yloxy)-3-methylphenyl)amino)pyrido[3,2-d]pyrimidin-6-yl)-3-azabicyclo[3.2.1]octan-3-yl)prop-2-en-1-one]
16 | – | – | – | – | 125 nM | 2550 nM | 70.8 nM | ≥ 5000 nM | C=CC(=O)N1C[C@H]2CC[C@@H]1C[C@H]2c1ccc2ncnc(Nc3ccc(Oc4cnc5c(c4)ncn5C)c(C)c3F)c2n1 [Example 423]
17 | – | – | – | – | 148 nM | ≥ 10000 nM | 933 nM | ≥ 5000 nM | C=CC(=O)N1CC[C@H]2C[C@@H]1CN2c1ccc2ncnc(Nc3cc(Cl)c(Oc4ccn5ncnc5c4)cc3F)c2n1 [Example 439]
18 | 68.1 nM | 9450 nM | 213 nM | ≥ 5000 nM | – | – | – | – | C=CC(=O)N1C[C@H]2C[C@H](c3ccc4ncnc(Nc5cc(C)c(Oc6ccn7ncnc7c6)cc5F)c4n3)C[C@H]2C1 [Example 201, 1-((3aR,5s,6aS)-5-(4-((4-([1,2,4]triazolo[1,5-a]pyridin-7-yloxy)-2-fluoro-5-methylphenyl)amino)pyrido[3,2-d]pyrimidin-6-yl)hexahydrocyclopenta[c]pyrrol-2(1H)-yl)prop-2-en-1-one]
19 | 31 nM | 1020 nM | 92.1 nM | ≥ 5000 nM | – | – | – | – | C=CC(=O)N1C[C@@H]2CC[C@H]1C[C@H]2c1ccc2ncnc(Nc3ccc(Oc4ccn5ncnc5c4)c(C)c3F)c2n1 (single isomer, unassigned) [Example 235]
20 | 48.9 nM | 1960 nM | 145 nM | ≥ 5000 nM | – | – | – | – | C=CC(=O)N1C[C@H]2CC[C@@H](C1)[C@@H]2c1ccc2ncnc(Nc3ccc(Oc4ccn5ncnc5c4)c(C)c3F)c2n1 [Example 223, 1-((1R,5S,8r)-8-(4-((4-([1,2,4]triazolo[1,5-a]pyridin-7-yloxy)-2-fluoro-3-methylphenyl)amino)pyrido[3,2-d]pyrimidin-6-yl)-3-azabicyclo[3.2.1]octan-3-yl)prop-2-en-1-one]
21 | – | – | – | – | 55 nM | 3440 nM | 82.4 nM | ≥ 5000 nM | C=CC(=O)N1C[C@H]2C[C@@H]1[C@H](c1ccc3ncnc(Nc4cc(C)c(Oc5ccn6ncnc6c5)cc4F)c3n1)C2 [Example 371]
22 | 132 nM | 9570 nM | 66.1 nM | ≥ 5000 nM | – | – | – | – | C=CC(=O)N1CCCN(c2ccc3ncnc(Nc4ccc(Oc5ccn6ncnc6c5)c(C)c4F)c3n2)CC1 [Example 100, 1-(4-(4-((4-([1,2,4]triazolo[1,5-a]pyridin-7-yloxy)-2-fluoro-3-methylphenyl)amino)pyrido[3,2-d]pyrimidin-6-yl)-1,4-diazepan-1-yl)prop-2-en-1-one]
23 | 448 nM | ≥ 10000 nM | 145 nM | ≥ 5000 nM | – | – | – | – | C=CC(=O)N1C[C@H]2C[C@@H]1CN2c1ccc2ncnc(Nc3cc(C)c(Oc4ccn5ncnc5c4)cc3F)c2n1 [Example 78, 1-((1R,4R)-5-(4-((4-([1,2,4]triazolo[1,5-a]pyridin-7-yloxy)-2-fluoro-5-methylphenyl)amino)pyrido[3,2-d]pyrimidin-6-yl)-2,5-diazabicyclo[2.2.1]heptan-2-yl)prop-2-en-1-one]
24 | – | – | – | – | 55.5 nM | 1580 nM | 44 nM | 3360 nM | C=CC(=O)N1C[C@@H]2C[C@H]1C[C@H]2c1ccc2ncnc(Nc3cc(C)c(Oc4ccn5ncnc5c4)cc3F)c2n1 [Example 373]
25 | – | – | – | – | 69.4 nM | ≥ 10000 nM | 96 nM | ≥ 5000 nM | C=CC(=O)N(C)[C@@H]1CCN(c2ccc3ncnc(Nc4cc(C)c(Oc5ccn6ncnc6c5)cc4F)c3n2)C1 [Example 350]
26 | – | – | – | – | 15.4 nM | 736 nM | 74 nM | ≥ 5000 nM | C=CC(=O)N1C[C@H]2CC[C@@H]1[C@@H](c1ccc3ncnc(Nc4ccc(Oc5ccn6ncnc6c5)c(C)c4F)c3n1)C2 [Example 398]
